In PubChem BioAssay AID248 (DTP/NCI, 2004):
Where “and” joins values, the source holds several entries; their conditions need not be identical. Equal values may be shown once. Inconclusive results and toxic doses are left out. Rule as the data show it: active = T/C of 150% or more; inactive = T/C below 125%.

Tested on: L1210 leukemia ip in BDF1 mice, survival T/C
Test: NCI In Vivo Anticancer Drug Screen. Data for tumor model L1210 Leukemia (intraperitoneal) in B6D2F1 (BDF1) mice
Settings: endpoint: mean survival time, higher = longer survival
In short: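 Transplantable tumor model; survival measured in treated vs vehicle control mice. Value = treated/control.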

[1] = dose: 100.0 mg/kg/injection, schedule: Q04DX003 (ip), vehicle: Klucel (hydroxypropylcellulose) (HPC)
[2] = dose: 200.0 mg/kg/injection, schedule: Q04DX003 (ip), vehicle: Klucel (hydroxypropylcellulose) (HPC)
[3] = dose: 100.0 mg/kg/injection, schedule: Q01DX009 (ip), vehicle: saline
[4] = dose: 100.0 mg/kg/injection, schedule: Q04DX003 (ip), vehicle: saline
[5] = dose: 200.0 mg/kg/injection, schedule: Q01DX009 (ip), vehicle: saline
[6] = dose: 200.0 mg/kg/injection, schedule: Q04DX003 (ip), vehicle: saline
[7] = dose: 400.0 mg/kg/injection, schedule: Q01DX009 (ip), vehicle: saline
[8] = dose: 400.0 mg/kg/injection, schedule: Q04DX003 (ip), vehicle: saline
[9] = dose: 50.0 mg/kg/injection, schedule: Q01DX001 (ip), vehicle: saline
[10] = dose: 100.0 mg/kg/injection, schedule: Q01DX001 (ip), vehicle: saline
[11] = dose: 200.0 mg/kg/injection, schedule: Q01DX001 (ip), vehicle: saline
[12] = dose: 100.0 mg/kg/injection, schedule: Q04DX002 (ip), vehicle: Klucel (hydroxypropylcellulose) (HPC)
[13] = dose: 200.0 mg/kg/injection, schedule: Q04DX002 (ip), vehicle: Klucel (hydroxypropylcellulose) (HPC)
[14] = dose: 12.5 mg/kg/injection, schedule: Q04DX003 (ip), vehicle: saline
[15] = dose: 400.0 mg/kg/injection, schedule: Q01DX001 (ip), vehicle: saline
[16] = dose: 50.0 mg/kg/injection, schedule: Q04DX003 (ip), vehicle: saline
[17] = dose: 25.0 mg/kg/injection, schedule: Q04DX002 (ip), vehicle: saline with Tween-80
[18] = dose: 50.0 mg/kg/injection, schedule: Q04DX002 (ip), vehicle: saline with Tween-80
[19] = dose: 100.0 mg/kg/injection, schedule: Q04DX002 (ip), vehicle: saline with Tween-80
[20] = dose: 200.0 mg/kg/injection, schedule: Q04DX002 (ip), vehicle: saline with Tween-80
[21] = dose: 50.0 mg/kg/injection, schedule: Q01DX009 (ip), vehicle: saline with Tween-80

Measured: T/C

O=c1cc(NCc2c(Cl)cccc2[N+](=O)[O-])[nH]c(=O)[nH]1
inactive: [1] 98 % of control | [2] 95 % of control | dose: 400.0 mg/kg/injection, schedule: Q04DX003 (ip), vehicle: Klucel (hydroxypropylcellulose) (HPC) 95 % of control

O=CN(Cc1cnccn1)Cc1cnccn1
inactive: [3] 96 % of control | [4] 93 % of control | [5] 98 % of control | [6] 96 % of control | [7] 94 % of control | [8] 96 % of control

CC1(C)C[N+](C)(Cc2ccccc2)N=C1[O-] (stereo not given)
inactive: dose: 25.0 mg/kg/injection, schedule: Q01DX001 (ip), vehicle: saline 94 % of control | [9] 94 % of control | [10] 94 % of control | [11] 102 % of control

CCc1ccccc1OC(=O)Nc1ccccc1C
inactive: [12] 95 % of control | [13] 100 % of control | dose: 400.0 mg/kg/injection, schedule: Q04DX002 (ip), vehicle: Klucel (hydroxypropylcellulose) (HPC) 95 % of control

N#CCC[CH2][Sn]([Br])([Br])[c]1ccccc1
inactive: dose: 3.12 mg/kg/injection, schedule: Q04DX003 (ip), vehicle: saline 91 % of control | dose: 6.25 mg/kg/injection, schedule: Q04DX003 (ip), vehicle: saline 96 % of control | [14] 91 % of control

Cn1[nH]c(=S)c(=O)[nH]c1=O
inactive: [10] 111 % of control | [11] 106 % of control | [15] 101 % of control

NC(=O)C(NC(=O)c1ccccc1)Sc1ccccc1 (stereo not given)
inactive: dose: 50.0 mg/kg/injection, schedule: Q01DX001 (ip), vehicle: Klucel (hydroxypropylcellulose) (HPC) 100 % of control | dose: 100.0 mg/kg/injection, schedule: Q01DX001 (ip), vehicle: Klucel (hydroxypropylcellulose) (HPC) 100 % of control | dose: 200.0 mg/kg/injection, schedule: Q01DX001 (ip), vehicle: Klucel (hydroxypropylcellulose) (HPC) 96 % of control

CCN(CC)C(=O)N1C2CCC1CN(C)C2
inactive: dose: 12.5 mg/kg/injection, schedule: Q01DX009 (ip), vehicle: saline 91 % of control | [14] 103 % of control | dose: 25.0 mg/kg/injection, schedule: Q01DX009 (ip), vehicle: saline 95 % of control | dose: 25.0 mg/kg/injection, schedule: Q04DX003 (ip), vehicle: saline 105 % of control | dose: 50.0 mg/kg/injection, schedule: Q01DX009 (ip), vehicle: saline 86 % of control | [16] 89 % of control

COC(=O)C1CC2OC2C(C)C1C(=O)OC (stereo not given)
inactive: dose: 100.0 mg/kg/injection, schedule: Q01DX009 (ip), vehicle: Klucel (hydroxypropylcellulose) (HPC) 95 % of control | dose: 200.0 mg/kg/injection, schedule: Q01DX009 (ip), vehicle: Klucel (hydroxypropylcellulose) (HPC) 103 % of control | dose: 400.0 mg/kg/injection, schedule: Q01DX009 (ip), vehicle: Klucel (hydroxypropylcellulose) (HPC) 105 % of control

OC1CC23C(O)CCCC12C1C=CC3C1 (stereo not given)
inactive: [17] 95 % of control | [18] 98 % of control | [19] 98 % of control | [20] 98 % of control

O=C1OI(Cl)c2ccccc21
inactive: [12] 88 % of control | [13] 120 % of control

Cc1cc(N(CCCl)CCCl)ccc1C=Nc1ccc(-c2csc(Cc3ccccc3)n2)c(Cl)c1
inactive: dose: 100.0 mg/kg/injection, schedule: Q01DX001 (sc), vehicle: carboxymethylcellulose (CMC) 100 % of control | dose: 200.0 mg/kg/injection, schedule: Q01DX001 (sc), vehicle: carboxymethylcellulose (CMC) 113 % of control | dose: 400.0 mg/kg/injection, schedule: Q01DX001 (sc), vehicle: carboxymethylcellulose (CMC) 100 % of control

O=C(N/N=C/c1ccc(Cl)cc1Cl)C(O)C(O)C(O)C(O)CO (stereo not given)
inactive: dose: 12.5 mg/kg/injection, schedule: Q04DX003 (ip), vehicle: saline with Tween-80 105 % of control | dose: 25.0 mg/kg/injection, schedule: Q04DX003 (ip), vehicle: saline with Tween-80 101 % of control | dose: 50.0 mg/kg/injection, schedule: Q01DX001 (ip), vehicle: saline with Tween-80 91 % of control | [21] 90 % of control | dose: 50.0 mg/kg/injection, schedule: Q04DX003 (ip), vehicle: saline with Tween-80 96 % of control and 92 % of control | dose: 100.0 mg/kg/injection, schedule: Q01DX001 (ip), vehicle: saline with Tween-80 104 % of control | [19] 92 % of control | dose: 200.0 mg/kg/injection, schedule: Q01DX001 (ip), vehicle: saline with Tween-80 90 % of control | [20] 86 % of control | dose: 400.0 mg/kg/injection, schedule: Q04DX002 (ip), vehicle: saline with Tween-80 97 % of control

CC1(C)OC2C(CO)OC(OCc3ccccc3)C2O1 (stereo not given)
inactive: [16] 100 % of control | [4] 91 % of control | [6] 105 % of control | [8] 88 % of control

Oc1ccc(Nc2cc(/C=C/c3ccc(Cl)cc3)nc(/C=C/c3ccc(Cl)cc3)n2)cc1CN1CCCC1
inactive: [9] 89 % of control | dose: 50.0 mg/kg/injection, schedule: Q04DX003 (ip), vehicle: Klucel (hydroxypropylcellulose) (HPC) 104 % of control | [10] 93 % of control | [1] 95 % of control | [11] 91 % of control | [2] 98 % of control

O=C(O)c1cc([N+](=O)[O-])cc([N+](=O)[O-])c1 (tested in a mixture with another compound)
inactive: dose: 3.13 mg/kg/injection, schedule: Q04DX002 (ip), vehicle: saline with Tween-80 100 % of control | dose: 6.25 mg/kg/injection, schedule: Q04DX002 (ip), vehicle: saline with Tween-80 106 % of control | [17] 96 % of control and 100 % of control | [18] 114 % of control

O=C(Nc1ccccc1)Sc1ccccc1
inactive: dose: 62.5 mg/kg/injection, schedule: Q01DX001 (ip), vehicle: Klucel (hydroxypropylcellulose) (HPC) 97 % of control

CCOC(=O)C1N=C(c2ccccc2)OC1c1ccccc1 (stereo not given)
inactive: [21] 94 % of control | dose: 100.0 mg/kg/injection, schedule: Q01DX009 (ip), vehicle: saline with Tween-80 94 % of control | dose: 200.0 mg/kg/injection, schedule: Q01DX009 (ip), vehicle: saline with Tween-80 102 % of control

S=P(c1ccccc1)(c1cccc2ccccc12)c1cccc2ccccc12
inactive: [10] 93 % of control | [11] 96 % of control | [15] 93 % of control

C=C1CCC2(C(C)C)CC12 (stereo not given)
inactive: [3] 103 % of control | [4] 96 % of control | [5] 93 % of control | [6] 110 % of control | [7] 94 % of control | [8] 100 % of control
